Common to all, as to experiment: DTP human tumour cell line panel, 48 h
Test [1] concerns OVCAR-4 ovarian.
Test [2] deals with UO-31 renal.
Test [3] concerns COLO 205 colon.
The subject of test [4] is OVCAR-5 ovarian.
Test [5] concerns HOP-18 NSCLC.
Test [6] has as its system SNB-75 CNS.
Test [7] concerns DU-145 prostate.
Test [8] relates to K-562 leukemia.
The test system of test [9] is MDA-MB-435.
The test system of test [10] is DMS 273 small cell lung.

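These data come from cells grown in 96-well plates and exposed to compound for 48 hours at five concentrations. GI50 is the concentration that inhibits growth by half. Definition used: TGI = concentration required for complete inhibition of growth.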 Some results are limits rather than exact numbers.

The GI50 is the concentration that inhibits growth by half. A word on the TGI: it is the concentration at which net growth stops. The low end stands for greater sensitivity of the cells, the high end for lower sensitivity of the cells. For `CC(=O)[CH-]C(=O)c1ccccc1.[C-]#[O+].[C-]#[O+].[Ir]`, the GI50 in [1], in test [2], in [3], in test [4], in [5] and in test [6] was over 100 µM in each case. Besides, the TGI in [1], in [2], in test [3], in [4], in test [5] and in [6] was over 100 µM throughout.

For the compound `CCc1ccc(Nc2cc(C)c3ccc(O)cc3n2)cc1`, the GI50 was 12.4 µM in test [1]; 4.54 µM in test [2]; 12.1 µM in [7]; 10.4 µM in test [3]; 3.2 µM in [8]; 6.94 µM in test [9]. The GI50 in [4] was 8.49 µM; in test [6], 11.3 µM. Besides, the TGI in [1] was 30.9 µM; in test [2], 23 µM; in [7], 28.1 µM; in test [3] it was 24.3 µM; in test [8], 15.4 µM; in test [9], 20.3 µM. For the same compound, the values for the TGI in [4] and in test [6] were 21.3 µM and 24.8 µM, respectively.

For `COc1ccc2c(C(=O)O)cc3ccccc3c2c1OC`, the TGI in test [10] was found to be 53.4 µM; in test [2] it was 30.9 µM; in test [3], 44.2 µM; in test [8] it was 80.6 µM; in test [4], 38.7 µM; in [5] it was 28.9 µM. This compound came in with a TGI in [6] of over 100 µM.

With `CC(=O)OCC(=O)[C@@]1(O)CC[C@H]2[C@@H]3C[C@H](C)C4=CC(=O)C=C[C@]4(C)[C@@]3(F)[C@@H](O)C[C@@]21C`, the TGI in test [1], in [10], in test [2], in test [3], in test [8] and in test [4] was over 100 µM each time. The TGI in [6] was over 100 µM.

For `OCCCCC#Cc1ccccc1C#Cc1cccc(C(F)(F)F)c1`, the GI50 in [1] was 14 µM; in test [2], 17.2 µM; in test [7], 15.3 µM; in test [3], 19.2 µM; in [8], 22.5 µM; in test [9] it was 16.9 µM. In addition, the results for the GI50 in test [4] and in test [6] were 17.5 µM and 14.6 µM, respectively. In addition, the TGI in test [1] came out at 28.1 µM; in test [2], 31.6 µM; in test [7] it was 29.9 µM; in test [3], 36.3 µM; in test [8], 71.5 µM; in [9], 31.6 µM. In addition, the TGI was found to be 37.2 µM in test [4] and 29.3 µM in [6].

With `CCCCCCCCCCCCCCNC(=O)Nc1ccc(Cl)c(Cl)c1`, the GI50 was 2.79 µM in [1]; 1.57 µM in test [2]; 3.59 µM in [7]; 1.81 µM in [3]; 8.04 µM in test [8]; 2.82 µM in test [9]. Besides, the GI50 in test [4] is 3.69 µM; in test [6] it was 1.98 µM. The TGI in test [1] is over 100 µM; in test [7], over 100 µM; in [3] it was 3.48 µM; in test [8], over 100 µM; in test [9] it was 8.33 µM; in test [4], over 100 µM. The TGI in test [6] came out at 9.57 µM.

`O=C(NCCc1ccccc1)C1C(=O)C(=O)N(CCc2ccccc2)C1=O` (stereo not drawn): the TGI in test [10], in test [2], in test [8] and in test [6] was over 100 µM each time.

Regarding `COc1ccc(-c2nc3ccc(Cc4ccc5nc(-c6ccc(OC)cc6)[nH]c5c4)cc3[nH]2)cc1`, the GI50 in test [1] was 0.189 µM; in test [2], 0.217 µM; in test [7] it was 0.0385 µM; in [3] it was under 0.01 µM; in [8], under 0.01 µM; in [9], under 0.01 µM. For the same compound, the results for the GI50 in test [4] and in test [6] were 0.182 µM and 0.0259 µM, respectively. In addition, the TGI in test [1] is 2.14 µM; in [2], 2.09 µM; in test [7] it was 0.154 µM; in test [3], 0.184 µM; in test [8], 0.159 µM; in test [9], 0.0202 µM. Also, the TGI came out at 2.85 µM in test [4] and 1.23 µM in test [6].

Turning to `CC(C)[C@@H]1CC[C@]2(CO2)[C@@H]2C(=O)OCC(C(=O)O)=C[C@H]21`, the GI50 in test [1] is 0.44 µM; in [2] it was 0.408 µM; in [7], 0.471 µM; in test [3], 0.657 µM; in [8], 0.334 µM; in test [9] it was 0.355 µM. Also, the GI50 in [4] was 0.54 µM; in [6] it was 0.422 µM. For the same compound, the TGI is over 100 µM in [1]; 15.9 µM in test [2]; over 100 µM in test [7]; over 57.7 µM in test [3]; over 100 µM in [8]; 6.72 µM in [9]. The TGI in [4] and in [6] was over 100 µM throughout.

Take `Cc1ccc(S(=O)(=O)NCCCCC(N)C(=O)O)cc1` (stereo not drawn): the TGI in [1], in test [2], in [7], in test [3], in [8] and in [9] was over 100 µM throughout. The TGI in test [4] and in test [6] was over 100 µM each time.

With `COCCN(Cc1ccc(F)cc1)c1ccc(CO)c(Cl)c1`, the GI50 is 1.82 µM in test [1]; 15.5 µM in test [2]; 70.4 µM in test [7]; 11.1 µM in test [3]; 10 µM in test [8]; 55.5 µM in test [9]. Also, the GI50 was 0.431 µM in test [4] and 16.6 µM in test [6]. The TGI in test [1] is 23 µM; in test [2], over 100 µM; in [7], over 100 µM; in test [3] it was 31.8 µM; in [8], over 100 µM; in test [9] it was over 100 µM. Moreover, the TGI was 2.52 µM in test [4] and over 87.4 µM in test [6].

For the origin of these results see PubChem BioAssay (NCI).
